# Test results published in patent US7256042B2, “Process for making hepatocytes from pluripotent stem cells” (Geron Corporation, priority 2000, dated 2007).
# Where two headings read alike, the source gives them in different places.
# Columns and labels:
# [1] = test system: H9 hES cells; assay: Differentiation of hES cells in feeder-free culture, morphology (Example 5); format: cell-based, human; conditions: feeder-free H9 hES cells on laminin, SR medium + 5 mM sodium butyrate, about six days after treatment
# Description: Undifferentiated hES colonies were passaged continuously in feeder-free conditions as follows. Cultures were incubated in 1 mg/mL collagenase for about 5 minutes at 37° C. The cells were then harvested by scraping the cells off the surface and dissociating them into small clumps. Cells were split at a 1:3 or 1:6 ratio, ˜55,000 cells/mL (17,000 cells/cm^2). The day after replating, colonies of undifferentiated cells could again be identified. Single cells in between the colonies were differentiated. Over the next few days, the undifferentiated cells were seen to proliferate and the colonies became large and compact. The differentiated cells in between the colonies also became more compact. The cells became confluent after 4-7 days of being fed daily with conditioned media. When the cells reached confluence, they were split once more.
# For this example, the H9 hES cells (p30+5) were maintained in feeder-free conditions for 30 days (5 passages) before differentiation. The undifferentiated cells were maintained on laminin and fed with MEF-conditioned medium, as described elsewhere in this disclosure. To induce differentiation, the conditioned medium was replaced with SR medium (without supplemental bFGF) containing 5 mM sodium butyrate.
# [2] = test system: Human ES cell derived embryoid bodies; conditions: 5 mM Na butyrate, with or without 1% DMSO, day 7
# [3] = test system: hES cell derived embryoid body cells; assay: Immunocytochemistry of embryoid body cells cultured 4 days after plating (Example 1)
# Description: Confluent monolayer cultures of hES cells on or off feeder cells were harvested by incubating in collagenase for 15-20 min, following which the cells are scraped from the plate. The cells were then dissociated into clusters and plated in non-adherent cell culture plates (Costar) in a medium composed of 80% KO DMEM (Gibco) and 20% non-heat-inactivated FBS (Hyclone), supplemented with 1% non-essential amino acids, 1 mM glutamine, 0.1 mM β-mercaptoethanol. The cells were seeded at a 1:2 ratio in 2 mL medium per well (6 well plate). The EBs were fed every other day by the addition of 2 mL of medium per well. When the volume of medium exceeded 4 mL/well, the EBs were collected and resuspended in fresh medium. After 4-8 days in suspension, the EBs were plated onto a substrate and allowed to differentiate further.
# (§2) The fixed cells were rinsed with PBS twice and blocked for 1 hour in 10% goat serum in PBS. They were then incubated in primary antibody diluted in 10% goat serum and PBS for 2 h. Antibody to albumin, alpha fetoprotein (AFP) (Sigma) and α1-antitrypsin (OEB Biosciences Inc.) were diluted at 1:500, cytokeratin, 8, 18 and 19, desmin, (Neomarkers), vimentin (Dako) and SMA (Sigma) were diluted at 1:200. Cells were then washed 3 times with PBS and incubated in secondary antibody, which was FITC-conjugated anti-mouse IgG diluted 1:100 and Hoechst HH33258 (Sigma) at 1:1000 in 5% goat serum in PBS, and incubated for 1 h. The stained cells were then washed 3 times in PBS, and mounted in Vectashield™ (Vector Labs). Images were taken at 10× and 40× using a Nikon Labophot™ equipped with epifluorescence and a spot CCD camera.
# Embryoid bodies (EB) were prepared as described in the preceding section. After 5 days in suspension culture, they were harvested and plated on Growth Factor Reduced Matrigel® coated plates and in chamber slides (Nunc). One of the following three conditions was used in parallel: • medium containing 20% fetal bovine serum (FBS); • medium containing 20% FBS and 5 mM sodium butyrate (Sigma); • medium containing 20% FBS, 0.5% DMSO (ATCC), 4 μM dexamethazone (Sigma), 150 ng/ml insulin, 10 ng/ml EGF, 600 nM glucagon (Sigma). In each case, the medium was exchanged every day, and cells were fixed for immunocytochemistry on day 4 after plating.
# [4] = test system: hES cell derived embryoid bodies; assay: Comparison of potential hepatocyte differentiation agents; format: cell-based, human; conditions: concentration of 5 mM, 6 days
# Description: (§1) The effect of sodium butyrate was compared with other potential hepatocyte differentiation agents in a similar protocol. Embryoid bodies were cultured in suspension for 4 days, and then replated on plates coated with collagenase 1. The cells were then cultured in the presence of each compound for 6 days.
# [5] = test system: undifferentiated hES cells; assay: Direct differentiation of hES cells without embryoid bodies, immunocytochemistry (Example 7); format: cell-based, human; conditions: 1% DMSO 4 days, then 2.5% Na-butyrate 6 days
# Text: The undifferentiated hES cells were maintained in feeder-free conditions (on Matrigel® in MEF-CM). The strategy was to initiate a global differentiation process by adding the hepatocyte maturation factors DMSO or retanoic acid (RA) to a subconfluent culture. The cells are then induced to form hepatocyte-like cells by the addition of Na-butyrate.
# The hES cells were maintained in undifferentiated culture conditions for 2-3 days after splitting. At this time, the cells were 50-60% confluent and the medium was exchanged with unconditioned SR medium containing 1% DMSO. The cultures were fed daily with SR medium for 4 days and then exchanged into unconditioned SR medium containing 2.5% Na-butyrate. The cultures were fed daily with this medium for 6 days; at which time one half of the cultures were evaluated by immunocytochemistry. The other half of the cultures were harvested with trypsin and replated onto collagen, to further promote enrichment for hepatocyte lineage cells. Immunocytochemistry was then performed on the following day.
# [6] = test system: hES cells; assay: Phenotype of hepatocyte lineage cells made using sodium n-butyrate or Trichostatin A; format: cell-based, human; conditions: 5 mM sodium n-butyrate; 100 nM Trichostatin A
# Description: as §1
# At 75-100 nM, Trichostatin A appeared to both induce hepatocyte differentiation and select against survival of other cell types.
# [7] = test system: EBs generated from hES cells; conditions: 20% FBS + 5 mM Na-butyrate, with or without 1% DMSO, 6 days
# Description: as §2
# EBs were generated from hES cells in feeder-free conditions. After 4 days in suspension, the EBs were plated in 20% FBS medium supplemented with 5 mM Na-butyrate or 5 mM Na-butyrate and 1% DMSO. The EBs were plated on the following matrices: • 1. collagen I (0.03 mg/mL coated overnight at 37° C.) • 2. growth factor reduced Matrigel® (1:10, coated for 1 h at room temp) • 3. gelatin (1% coated for 2 h at 37° C.)
# After 6 days in Na-butyrate the cells were evaluated morphologically and using immunocytochemistry for hepatocyte markers.
# [8] = test system: hES cells; assay: Direct differentiation Protocol 7, cell morphology (FIG. 5); format: cell-based, human; conditions: 4 days in SR medium containing butyrate
# Description: hES cells undergo the Direct Differentiation protocol detailed earlier, making the adjustments to culture conditions shown in Table 12. Hepatocyte Culture Medium is purchased from Clonetics; Strom's Medium is prepared as described in Runge et al., Biochem. Biophys. Res. Commun. 265:376, 1999. The cell populations obtained are assessed by immunocytochemistry and enzyme activity.
# Left column: 10×magnification; Right column: 40×magnification. By 4 days in the presence of butyrate, more than 80% of cells in the culture are large in diameter, containing large nuclei and granular cytoplasm (Row A). After 5 days in SR medium, the cells were switched to HCM. Two days later, many cells are multinucleated, and have a large polygonal shape (Row B). By 4 days in HCM, multinucleated polygonal cells are common, and have a darker cytosol (Row C), by which criteria they resemble freshly isolated human adult hepatocytes (Row D) or fetal hepatocytes (Row E).
# [9] = EBs on Growth Factor Reduced Matrigel, day 4, 20% FBS + 5 mM sodium butyrate, or 20% FBS + 0.5% DMSO + dexamethazone, insulin, EGF, glucagon
# [10] = Trypsinization and replating onto collagen, stained the following day
smiles,measurement,setting,value
CCCC(=O)[O-].[Na+] [Sodium n-butyrate],Cell morphology (in words),[1],contained many patches of hepatocyte-like cells
same,"Albumin, percentage of cells staining",[2]; Gelatin coated plates,56%
same,"CK18, percentage of cells staining",[2]; Gelatin coated plates,100%
same,"CK19, percentage of cells staining",[2]; Gelatin coated plates,100%
same,"Glycogen, percentage of cells staining",[2]; Gelatin coated plates,>60%
same,"α1-antitrypsin, percentage of cells staining",[2]; Gelatin coated plates,>90%
same,"α-fetoprotein, percentage of cells staining",[2]; Gelatin coated plates,0
same,"Albumin, percentage of cells staining",[2]; Matrigel coated plates,50%
same,"CK18, percentage of cells staining",[2]; Matrigel coated plates,100%
same,"CK19, percentage of cells staining",[2]; Matrigel coated plates,100%
same,"Glycogen, percentage of cells staining",[2]; Matrigel coated plates,>60%
same,"α1-antitrypsin, percentage of cells staining",[2]; Matrigel coated plates,>90%
same,"α-fetoprotein, percentage of cells staining",[2]; Matrigel coated plates,0
same,Cell survival and morphology (in words),"[3]; 20% FBS + 5 mM sodium butyrate, 1 day after plating",fairly homogenous population of cells survived
same,"AFP, cells showing positive staining",[3]; [9],did not express AFP
same,"Albumin, percentage of cells showing positive staining",[3]; [9],about 30%
same,"CK8, percentage of cells showing positive staining",[3]; [9],100% + ve
same,"CK18, percentage of cells showing positive staining",[3]; [9],100% + ve
same,"CK19, percentage of cells showing positive staining",[3]; [9],100% + ve
same,"SMA, percentage of cells showing positive staining",[3]; [9],<1% + ve
same,"Vimentin, percentage of cells showing positive staining",[3]; [9],100% + ve
same,"α1-antitrypsin, percentage of cells showing positive staining",[3]; [9],>60% + ve
same,"Albumin, percentage of cells showing positive staining","[3]; EBs on Growth Factor Reduced Matrigel, day 4, 20% FBS + 5 mM sodium butyrate, or 20% FBS + 0.5% DMSO + dexamethazone, insulin, EGF, glucagon, listed as Na butyrate",30% + ve*
same,Cultured embryoid body derived cells released from the substrate into the medium,[3]; first day of culture with the differentiation agent,about 90%
same,Effect on hepatocyte differentiation (in words),[4],equally effective
same,"Cytokeratin 8, % positive",[5]; No trypsinization,>80%
same,"Cytokeratin 18, % positive",[5]; No trypsinization,>80%
same,"Cytokeratin 19, % positive",[5]; No trypsinization,>80%
same,"albumin, % positive",[5]; No trypsinization,11%
same,"glycogen, % positive",[5]; No trypsinization,0%
same,"α1-antitrypsin, % positive",[5]; No trypsinization,>80%
same,"α-fetoprotein, % positive",[5]; No trypsinization,0%
same,"Cytokeratin 8, % positive",[5]; [10],45%
same,"Cytokeratin 18, % positive",[5]; [10],30%
same,"Cytokeratin 19, % positive",[5]; [10],30%
same,"albumin, % positive",[5]; [10],63%
same,"glycogen, % positive",[5]; [10],>50%
same,"α1-antitrypsin, % positive",[5]; [10],>80%
same,"α-fetoprotein, % positive",[5]; [10],0%
same,"CK18, positive cells",[6],100%
same,"CK19, positive cells",[6],100%
same,"Glycogen staining, positive cells",[6],>60%
same,"albumin, positive cells",[6],62%
same,"α1-antitrypsin, positive cells",[6],90%
same,"α-fetoprotein, positive cells",[6],0%
same,"Cytokeratin 18, percentage of cells positive",[7]; Collagen I,100%
same,"Cytokeratin 19, percentage of cells positive",[7]; Collagen I,100%
same,"Glycogen, percentage of cells positive",[7]; Collagen I,>60%
same,"albumin, percentage of cells positive",[7]; Collagen I,79%
same,"α1-antitrypsin, percentage of cells positive",[7]; Collagen I,>90%
same,"α-fetoprotein, percentage of cells positive",[7]; Collagen I,0
same,"Cytokeratin 18, percentage of cells positive",[7]; Gelatin,100%
same,"Cytokeratin 19, percentage of cells positive",[7]; Gelatin,100%
same,"Glycogen, percentage of cells positive",[7]; Gelatin,>60%
same,"albumin, percentage of cells positive",[7]; Gelatin,50%
same,"α1-antitrypsin, percentage of cells positive",[7]; Gelatin,>90%
same,"α-fetoprotein, percentage of cells positive",[7]; Gelatin,0
same,"Cytokeratin 18, percentage of cells positive",[7]; Matrigel,100%
same,"Cytokeratin 19, percentage of cells positive",[7]; Matrigel,100%
same,"Glycogen, percentage of cells positive",[7]; Matrigel,>60%
same,"albumin, percentage of cells positive",[7]; Matrigel,56%
same,"α1-antitrypsin, percentage of cells positive",[7]; Matrigel,>90%
same,"α-fetoprotein, percentage of cells positive",[7]; Matrigel,0
same,"Cells large in diameter, containing large nuclei and granular cytoplasm",[8]; listed as butyrate,more than 80%
same,"Cells large in diameter, containing large nuclei and granular cytoplasm",[8]; listed as sodium n-butyrate,More than 80%
